Measurements reported in patent US20230372433A1, “NANOPARTICLE FOR ANTI-CANCER PEPTIDES AND USES THEREOF” (KING'S COLLEGE LONDON, priority 2020, published 2023).
Where two headings read alike, the source gives them in different places. [ ]: non-standard residue; d: D form.

Legend:
[1] = test system: HMLER-shEcad (human breast cancer stem cell); test: MTT cytotoxicity assay, HMLER-shEcad; type: cell-based
[2] = test system: U2OS (human bone osteosarcoma); test: MTT cytotoxicity assay, U2OS; type: cell-based; conditions: 72 hr
[3] = test system: HEK293T (human embryonic kidney cell); test: MTT cytotoxicity assay, HEK293T; type: cell-based; conditions: read-out: IC50 HEK293T
[4] = test system: HMLER-shEcad mammospheres; test: Tumoursphere formation and viability assay; type: cell-based, human
[5] = test system: MCF-10A (human breast epithelial cell); test: cells; conditions: read-out: IC50 MCF-10A
HMLER-shEcad cells = test: HMLER-shEcad viability with co-incubated necrostatin or z-VAD-FMK; type: cell-based, human
[6] = test system: HMLER (human breast cancer bulk cell); test: MTT cytotoxicity assay, HMLER; type: cell-based; conditions: read-out: IC50 HMLER
[7] = Tryptophan fluorescent binding assay, POPC vesicles; conditions: 50 μM peptide, PBS pH 7.4
Outline: (§1)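 Tryptophan fluorescence was measured with peptide fixed at 50 μM and POPC or 3POPC/1POPG LUVs (100 nm extruded) titrated 0–5000 μM in PBS pH 7.4, read after 60 min. Excitation was 280 nm and emission 300–450 nm. The value is the lipid concentration giving 50% peptide binding, expressed as lipid per peptide.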

[8] = ANTS/DPX liposome leakage assay, POPC vesicles; type: biochemical; conditions: 0.5 mM vesicles
Outline: (§2)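 0.5 mM extruded 100 nm LUVs loaded with 5 mM ANTS/12.5 mM DPX were incubated 3 h with peptide at 0–20 μM in PBS pH 7.4 or HCl-adjusted PBS pH 4.8. Fluorescence read at ex 350/em 510 nm; 10% Triton set maximum leakage; values expressed as lipid per peptide.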

[9] = ANTS/DPX liposome leakage assay, 3POPC/1POPG vesicles; type: biochemical; conditions: 0.5 mM vesicles
Outline: as §2

[10] = Tryptophan fluorescent binding assay, 3POPC/1POPG vesicles; conditions: 50 μM peptide, PBS pH 7.4
Outline: as §1

[11] = 72 hr, MTT, read-out: IC50 HMLER-shEcad

Molecule	IC50 [1, 11]	IC50 [2]	IC50 ([3]; 72 hr, MTT)	IC50 ([5]; 72 hr, MTT)	IC50 ([6]; 72 hr, MTT)	Lipid Concentration-induced 50% Peptide Binding (L/P) POPC Vesicle [7]	Peptide Concentration-induced 50% ANTS/DPX leakage at pH 4.8 (L/P) POPC Vesicle [8]	Peptide Concentration-induced 50% ANTS/DPX leakage at pH 7.4 (L/P) POPC Vesicle [8]	Peptide Concentration-induced 50% ANTS/DPX leakage at pH 4.8 (L/P) 3POPC/1POPG Vesicle [9]	Peptide Concentration-induced 50% ANTS/DPX leakage at pH 7.4 (L/P) 3POPC/1POPG Vesicle [9]	Lipid Concentration-induced 50% Peptide Binding (L/P) 3POPC/1POPG Vesicle [10]	other results
COc1cccc2c1C(=O)c1c(O)c3c(c(O)c1C2=O)C[C@@](O)(C(=O)CO)C[C@@H]3O[C@H]1C[C@H](N)[C@H](O)[C@H](C)O1 [Doxorubicin, reference compound]	–	–	–	–	–	–	–	–	–	–	–	IC50 ([1]; Homo sapiens, 72 hr, MTT, read-out: IC50 HMLER-shEcad): 0.003 µM; IC50 ([1]; Homo sapiens, two-dimensional culture, read-out: IC50 against two-dimensional HMLER-shEcad): 0.0025 ± 0.0003 µM; IC50 ([2]; Homo sapiens, U2OS): 0.015 µM; IC50 ([3]; Homo sapiens, HEK-293T, 72 hr, MTT): 0.00011 µM; fold decrease in activity, mammospheres versus two-dimensional HMLER-shEcad [4]: 1,700 fold; IC50 ([5]; Homo sapiens, MCF-10A, 72 h): 0.64 µM; cell viability on co-incubation with necrostatin or z-VAD-FMK (HMLER-shEcad cells): can be dramatically improved; IC50 ([6]; Homo sapiens, 72 hr, MTT): 0.0025 µM
CC[C@@H](C(=O)[C@@H](C)[C@@H](O)[C@H](C)[C@@H]1O[C@@H]([C@@H](CC)C(=O)O)CC[C@@H]1C)[C@H]1O[C@]2(C=C[C@@H](O)[C@]3(CC[C@@](C)([C@H]4CC[C@](O)(CC)[C@H](C)O4)O3)O2)[C@H](C)C[C@@H]1C [Salinomycin, reference compound]	–	–	–	–	–	–	–	–	–	–	–	IC50 ([1]; Homo sapiens, 72 h, read-out: IC50 HMLER-shEcad): 0.92 ± 0.28 µM; IC50 ([1]; Homo sapiens, read-out: IC50 against two-dimensional HMLER-shEcad): 0.37 ± 0.0005 µM; IC50 ([3]; Homo sapiens, HEK-293T, 72 h): 0.41 ± 0.1 µM; fold decrease in activity, mammospheres versus two-dimensional HMLER-shEcad [4]: 63 fold; IC50 ([4]; Homo sapiens, read-out: IC50 in mammospheres): 22 ± 5 µM; IC50 ([5]; Homo sapiens, MCF-10A, 72 h): 9.76 ± 2.28 µM; IC50 ([6]; Homo sapiens, 72 h): 0.37 ± 0.08 µM
D-form peptide of the selected sequence EEK (GLLELLELLLKAAGW) (H-G[dL][dL][dE][dL][dL][dE][dL][dL][dL][dK][dA][dA]G[dW]-NH2) [D-form EEK]	0.29 ± 0.01 µM	4.78 ± 0.02 µM	2.82 ± 0.07 µM	1.07 ± 0.1 µM	0.29 ± 0.01 µM	–	–	–	–	–	–	cell viability on co-incubation with necrostatin or z-VAD-FMK (HMLER-shEcad cells): cannot be improved
GLLHLLHLLLKAAG [HHK]	1.75 ± 0.21 µM	12.7 ± 1.91 µM	5.25 ± 1.48 µM	5.6 ± 0.14 µM	3.15 ± 0.07 µM	0.68 L/P	149 L/P	1133 L/P	111 L/P	160 L/P	0.20 L/P	–
GLLHLLKLLLEAAG [HKE]	1.9 ± 0.42 µM	16 ± 0.78 µM	5.15 ± 0.64 µM	7.6 ± 0.42 µM	2.7 ± 0.28 µM	0.75 L/P	173 L/P	692 L/P	94 L/P	365 L/P	0.25 L/P	–
GLLHLLKLLLHAAG [HKH]	3.1 ± 0.57 µM	18.9 ± 1.24 µM	5.7 ± 0.99 µM	6.1 µM	3.45 ± 0.21 µM	0.18 L/P	193 L/P	1077 L/P	47 L/P	274 L/P	0.38 L/P	–
GLLHLLKLLLKAAG [HKK]	2.6 ± 0.42 µM	12.23 ± 0.11 µM	9.5 ± 0.99 µM	2.18 ± 0.39 µM	3.4 ± 0.71 µM	0.18 L/P	106 L/P	657 L/P	106 L/P	90 L/P	0.14 L/P	–
GLLKLLELLLHAAG [KEH]	2.35 ± 0.07 µM	49.2 ± 5.3 µM	5.65 ± 0.07 µM	20 µM	3.3 ± 0.42 µM	1.00 L/P	188 L/P	995 L/P	68 L/P	286 L/P	0.50 L/P	–
GLLKLLELLLKAAG [KEK]	1.35 ± 0.07 µM	8.15 ± 0.49 µM	3.2 ± 0.14 µM	1.55 ± 0.07 µM	1.6 ± 0.14 µM	0.47 L/P	110 L/P	1173 L/P	126 L/P	438 L/P	0.50 L/P	–
GLLKLLHLLLEAAG [KHE]	2.92 ± 0.17 µM	53 ± 2.83 µM	26 ± 2.83 µM	20.9 ± 5.87 µM	3.7 ± 0.14 µM	0.88 L/P	183 L/P	981 L/P	156 L/P	188 L/P	0.71 L/P	–
GLLKLLHLLLHAAG [KHH]	4.45 ± 0.49 µM	39.8 ± 5.3 µM	7.75 ± 0.78 µM	10.3 ± 0.49 µM	5.2 ± 0.71 µM	3.50 L/P	227 L/P	1153 L/P	48 L/P	329 L/P	0.94 L/P	–
GLLKLLHLLLKAAG [KHK]	1.4 ± 0.14 µM	12.9 ± 1.24 µM	3.55 ± 0.78 µM	1.81 ± 0.05 µM	2.59 ± 0.92 µM	0.17 L/P	140 L/P	1153 L/P	53 L/P	193 L/P	0.38 L/P	–
GLLKLLKLLLEAAG [KKE]	1.7 µM	12.8 ± 1.2 µM	4.4 ± 0.14 µM	2.9 ± 0.57 µM	2.05 ± 0.64 µM	0.48 L/P	143 L/P	1133 L/P	131 L/P	346 L/P	0.44 L/P	–
GLLKLLKLLLHAAG [KKH]	2.2 ± 0.42 µM	13.3 ± 0.99 µM	4 ± 0.28 µM	1.75 ± 0.35 µM	2.4 ± 0.85 µM	0.83 L/P	164 L/P	2119 L/P	49 L/P	227 L/P	0.48 L/P	–
GLLKLLKLLLKAAG [KKK]	1.35 ± 0.4 µM	9.65 ± 1.2 µM	3.7 ± 0.14 µM	1.37 ± 0.24 µM	1.57 ± 0.24 µM	1.25 L/P	156 L/P	1369 L/P	81 L/P	115 L/P	1.70 L/P	–
